Assay results published in patent US20250313553A1, “ANNULATED 2-AMINO-3-CYANO THIOPHENES AND DERIVATIVES FOR THE TREATMENT OF CANCER” (Boehringer Ingelheim Int'l GmbH Corp., priority 2021, published 2025).

Assays:
SAS cells = experiment: SAS CTG proliferation assay (120 h); format: cell-based; conditions: HNSCC, wt amplified
Description: (§1) SAS cells (JCRB0260) are dispensed into 384-well plates, flat and clear bottom (Greiner, PNr. 781091) at a density of 300 cells per well in 60 μL DMEM:F12 (Gibco 31330-038)+10% Fetal Calf Serum (HyClone, PNr.: SH30084.03) and incubated at 37° C. in a CO2 incubator overnight. The next day, compounds (10 mM stock in DMSO) are added with the ECHO acoustic liquid handler system (Beckman Coulter), including DMSO controls. Plates are incubated for 120 h, and cell viability is measured using CellTiter-Glo luminescent cell viability reagent (Promega product code G7570). Viability (stated as percent of control) is defined as relative luminescence units RLU of each well divided by the RLU of cells in DMSO controls. IC50 values are determined from viability measurements by non-linear regression using a four-parameter model.

KRAS (WT) and SOS1 = biological target: T1, KRAS (WT) and SOS1 (Homo sapiens, UniProt P01116, C118S); experiment: KRAS::SOS1 AlphaScreen binding assay, KRAS WT
T1 construct: KRAS (WT) 1-169, N-terminal 6His-tag for purification; 6His (N, cleaved yes); TEV cleavage site
T1 sequence (P01116 1-169 isoform P01116-2 C118S): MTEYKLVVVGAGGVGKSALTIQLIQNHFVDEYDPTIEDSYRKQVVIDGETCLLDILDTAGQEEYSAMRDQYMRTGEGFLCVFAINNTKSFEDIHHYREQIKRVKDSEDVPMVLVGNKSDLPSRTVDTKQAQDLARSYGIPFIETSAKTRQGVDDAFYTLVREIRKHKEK
Description: (§2) Low IC50 values in this assay setting are indicative of strong inhibition of protein-protein interaction between SOS1 and KRAS:
(§3) These assays measure the inhibitory effect of compounds on KRAS mutant protein-protein interactions using the Alpha Screen technology by Perkin Elmer.
(§4) For the chosen highest assay concentration of 100 μM, 150 nL of compound solution are transferred from a 10 mM DMSO compound stock solution. A series of eleven fivefold dilutions per compound are transferred to the assay plate, compound dilutions are tested in duplicates. DMSO are added as backfill to a total volume of 150 nL.
The assays run on a fully automated robotic system in a darkened room below 100 Lux. To 150 nl of compound dilution 10 μl of a mix including KRAS mutant protein, SOS1 (final assay concentrations see above) and GDP nucleotide (Sigma G7127; final assay concentration 10 μM) in assay buffer (1×PBS, 0.1% BSA, 0.05% Tween 20) are added into columns 1-24. […]
(§5) Plates are kept at room temperature in a darkened incubator. After an additional 60 minutes incubation time the signal is measured in a PerkinElmer Envision HTS Multilabel Reader using the AlphaScreen specs from PerkinElmer.
(§6) IC50 values are calculated and analyzed with Boehringer Ingelheim's MEGALAB IC50 application using a 4 parametric logistic model.

KRAS (G12V) and SOS1 = biological target: T2, KRAS (G12V) and SOS1 (Homo sapiens, UniProt P01116, C118S/G12V); experiment: KRAS::SOS1 AlphaScreen binding assay, KRAS G12V
T2 construct: KRAS (G12V) 1-169, N-terminal 6His-tag for purification; 6His (N, cleaved yes); TEV cleavage site
T2 sequence (P01116 1-169 isoform P01116-2 G12V/C118S): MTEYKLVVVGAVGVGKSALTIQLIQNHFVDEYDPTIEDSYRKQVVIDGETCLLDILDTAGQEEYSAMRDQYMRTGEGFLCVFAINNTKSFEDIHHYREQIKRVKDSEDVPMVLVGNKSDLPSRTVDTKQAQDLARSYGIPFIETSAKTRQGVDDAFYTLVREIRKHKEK
Description: as §2, §3, §4
The assays run on a fully automated robotic system in a darkened room below 100 Lux. To 150 nl of compound dilution 10 μl of a mix including KRAS mutant protein, SOS1 (final assay concentrations see above) and GDP nucleotide (Sigma G7127; final assay concentration 10 μM) in assay buffer (1×PBS, 0.1% BSA, 0.05% Tween 20) are added into columns 1-24. After 30 minutes incubation time 5 μl of Alpha Screen bead mix in assay buffer are added into columns 1-23.
as §5, §6

LOVO cells = experiment: LOVO CTG proliferation assay (120 h); format: cell-based; conditions: Homo sapiens, CRC, G13D
Description: as §1, with “LOVO cells (ATCC” for “SAS cells (JCRB0260)”, “LOVO cells (ATCC CCL-229) are dispensed” for “SAS cells (JCRB0260) are dispensed”, “density of 1000 cells per” for “density of 300 cells per”, “60 μL DMEM (Sigma D6429)+10% Fetal Calf” for “60 μL DMEM:F12 (Gibco 31330-038)+10% Fetal Calf”

SK-CO-1 cells = experiment: SK-CO-1 CTG proliferation assay (120 h); format: cell-based; conditions: Homo sapiens, CRC, G12V
Description: as §1, with “SK-CO-1 cells (ATCC” for “SAS cells (JCRB0260)”, “SK-CO-1 cells (ATCC HTB-39) are dispensed” for “SAS cells (JCRB0260) are dispensed”, “density of 500 cells per” for “density of 300 cells per”, “60 μL EMEM (Sigma M5650)+10% Fetal Calf” for “60 μL DMEM:F12 (Gibco 31330-038)+10% Fetal Calf”

NCI-H358 cells = experiment: NCI-H358 CTG proliferation assay (120 h), assay 2; format: cell-based; conditions: Homo sapiens, 384-well, 200 cells per well
Description: NCI-H358 cells (ATCC No. CRL-5807) are dispensed into white bottom opaque 96 well plates (Perkin Elmer cat no. 5680) at a density of 2000 cells per well in 100 μL RPMI-1640 ATCC-Formulation (Gibco #A10491)+10% FCS (fetal calf serum) (assay 1) or into black 384-well plates, flat and clear bottom (Greiner, PNr. 781091) at a density of 200 cells per well in 60 μl RPMI-1640 ATCC-Formulation (Gibco #A10491)+10% FCS (fetal calf serum) (assay 2). […] Compounds (10 mM stock in DMSO) are added at logarithmic dose series using the HP Digital Dispenser D300 (Tecan) (assay 1) or the ECHO acoustic liquid handler system (Beckman Coulter) (assay 2), normalizing for added DMSO and including DMSO controls. For the T0 time point measurement, untreated cells are analyzed at the time of compound addition. Plates are incubated for 120 h, and cell viability is measured using CellTiter-Glo luminescent cell viability reagent (Promega product code G7570). Viability (stated as percent of control) is defined as relative luminescence units RLU of each well divided by the RLU of cells in DMSO controls. IC50 values are determined from viability measurements by non-linear regression using a four-parameter model.

Compound: C[C@H]1CN(C)CCN1c1cccc(-c2noc([C@@]3(C)CCCc4sc(N)c(C#N)c43)n2)n1 [Example V-1]
- IC50 (SAS cells): 8020 nM
- IC50 (KRAS (WT) and SOS1): 125 nM
- IC50 (KRAS (G12V) and SOS1): 52 nM
- IC50 (LOVO cells): 8470 nM
- IC50 (SK-CO-1 cells): 4800 nM
- IC50 (NCI-H358 cells): 937 nM

Compound: COCCCN1CCCN(c2nccc(-c3noc([C@@]4(C)CCCc5sc(N)c(C#N)c54)n3)n2)[C@@H](C)C1 [Example V-2]
- IC50 (KRAS (G12V) and SOS1): 6 nM

Compound: C[C@H](Oc1cccc(-c2noc([C@@]3(C)CCCc4sc(N)c(C#N)c43)n2)n1)[C@@H]1CCCN1C [Example V-8]
- IC50 (SAS cells): 3100 nM
- IC50 (KRAS (WT) and SOS1): 28 nM
- IC50 (KRAS (G12V) and SOS1): 9 nM
- IC50 (LOVO cells): 1430 nM
- IC50 (SK-CO-1 cells): 6650 nM
- IC50 (NCI-H358 cells): 230 nM

Compound: CC(C)N1CCCN(c2nccc(-c3noc([C@@]4(C)CCCc5sc(N)c(C#N)c54)n3)n2)[C@@H](C)C1 [Example V-9]
- IC50 (NCI-H358 cells): 1190 nM

Compound: C[C@H](Oc1ccnc(-c2noc([C@@]3(C)CCCc4sc(N)c(C#N)c43)n2)n1)[C@@H]1CCCN1C [Example V-11]
- IC50 (SAS cells): 3330 nM
- IC50 (LOVO cells): 193 nM
- IC50 (SK-CO-1 cells): 737 nM
- IC50 (NCI-H358 cells): 244 nM

Compound: C[C@H]1CN(C)CCN1c1nccc(-c2cc([C@@]3(C)CCCc4sc(N)c(C#N)c43)on2)n1 [Example V-27]
- IC50 (KRAS (G12V) and SOS1): 18 nM
